Measurements taken from PubChem BioAssay AID248 (DTP/NCI, 2004).
Several values for one entry are separate records, joined by “and”; a condition that tells them apart may be missing. Identical values can stand only once. Inconclusive results and toxic doses are left out. No stated cut-off is given here; in the data, active means T/C of 150% or more; inactive means T/C below 125%.

Test system: L1210 leukemia ip in BDF1 mice, survival T/C
Experiment: NCI In Vivo Anticancer Drug Screen. Data for tumor model L1210 Leukemia (intraperitoneal) in B6D2F1 (BDF1) mice
Details: endpoint: mean survival time, higher = longer survival
How it was run: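 Transplantable tumor model; survival measured in treated vs vehicle control mice. Value = treated/control.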

[1] = dose: 100.0 mg/kg/injection, schedule: Q04DX002 (ip), vehicle: saline
[2] = dose: 200.0 mg/kg/injection, schedule: Q04DX002 (ip), vehicle: saline
[3] = dose: 100.0 mg/kg/injection, schedule: Q04DX002 (ip), vehicle: Klucel (hydroxypropylcellulose) (HPC)
[4] = dose: 200.0 mg/kg/injection, schedule: Q04DX002 (ip), vehicle: Klucel (hydroxypropylcellulose) (HPC)
[5] = dose: 50.0 mg/kg/injection, schedule: Q04DX002 (ip), vehicle: Klucel (hydroxypropylcellulose) (HPC)
[6] = dose: 100.0 mg/kg/injection, schedule: Q01DX009 (ip), vehicle: Klucel (hydroxypropylcellulose) (HPC)
[7] = dose: 400.0 mg/kg/injection, schedule: Q01DX009 (ip), vehicle: Klucel (hydroxypropylcellulose) (HPC)
[8] = dose: 100.0 mg/kg/injection, schedule: Q01DX009 (ip), vehicle: saline
[9] = dose: 100.0 mg/kg/injection, schedule: Q04DX003 (ip), vehicle: saline
[10] = dose: 200.0 mg/kg/injection, schedule: Q01DX009 (ip), vehicle: saline
[11] = dose: 200.0 mg/kg/injection, schedule: Q04DX003 (ip), vehicle: saline
[12] = dose: 400.0 mg/kg/injection, schedule: Q04DX003 (ip), vehicle: saline
[13] = dose: 100.0 mg/kg/injection, schedule: Q04DX003 (ip), vehicle: saline with Tween-80
[14] = dose: 200.0 mg/kg/injection, schedule: Q04DX003 (ip), vehicle: saline with Tween-80
[15] = dose: 25.0 mg/kg/injection, schedule: Q01DX009 (ip), vehicle: saline
[16] = dose: 25.0 mg/kg/injection, schedule: Q04DX003 (ip), vehicle: saline
[17] = dose: 50.0 mg/kg/injection, schedule: Q01DX009 (ip), vehicle: saline
[18] = dose: 50.0 mg/kg/injection, schedule: Q04DX003 (ip), vehicle: saline
[19] = dose: 50.0 mg/kg/injection, schedule: Q01DX001 (ip), vehicle: saline
[20] = dose: 100.0 mg/kg/injection, schedule: Q01DX001 (ip), vehicle: saline
[21] = dose: 400.0 mg/kg/injection, schedule: Q04DX003 (ip), vehicle: saline with Tween-80

Measured: T/C

O=P(O)(O)CO
inactive: [1] 97 % of control and 87 % of control | [2] 86 % of control

COc1ccc(N=Cc2cc(Br)ccc2O)cc1
inactive: dose: 100.0 mg/kg/injection, schedule: Q04DX002 (ip), vehicle: saline with Tween-80 100 % of control | dose: 200.0 mg/kg/injection, schedule: Q04DX002 (ip), vehicle: saline with Tween-80 104 % of control | dose: 400.0 mg/kg/injection, schedule: Q04DX002 (ip), vehicle: saline with Tween-80 100 % of control

O=C(O)/C=C/SCc1ccccc1
inactive: [3] 97 % of control | [4] 90 % of control | dose: 400.0 mg/kg/injection, schedule: Q04DX002 (ip), vehicle: Klucel (hydroxypropylcellulose) (HPC) 97 % of control

Cc1ccc2ccc(/C=N/Nc3ccc4cccc(O)c4n3)c(O)c2n1
inactive: dose: 100.0 mg/kg/injection, schedule: Q01DX001 (ip), vehicle: carboxymethylcellulose (CMC) 88 % of control | dose: 400.0 mg/kg/injection, schedule: Q01DX001 (ip), vehicle: carboxymethylcellulose (CMC) 88 % of control

O=C(NC(C(=O)c1ccccc1)c1ccccc1)c1ccccc1 (centres undefined)
inactive: [5] 98 % of control | [6] 86 % of control | [3] 92 % of control | [4] 106 % of control | [7] 101 % of control

CC(=O)Nc1ccn(CC(=O)c2cccs2)c(=O)n1
inactive: [8] 96 % of control | [9] 95 % of control | [10] 94 % of control | [11] 101 % of control | dose: 400.0 mg/kg/injection, schedule: Q01DX009 (ip), vehicle: saline 89 % of control | [12] 110 % of control

Cc1cc(C)c(O)c(CN(C)C)c1
inactive: [13] 101 % of control | [14] 98 % of control

CN(C)CCC1CCCCN1 (centres undefined)
inactive: [15] 95 % of control | [16] 103 % of control | [17] 95 % of control | [18] 101 % of control | [8] 104 % of control | [9] 99 % of control and 100 % of control

CNNC(=O)c1cccnc1
inactive: dose: 25.0 mg/kg/injection, schedule: Q01DX001 (ip), vehicle: saline 95 % of control | [15] 95 % of control and 98 % of control | [16] 105 % of control | [19] 100 % of control | [17] 95 % of control and 100 % of control | [18] 104 % of control | [20] 102 % of control | [8] 95 % of control and 98 % of control | [9] 98 % of control

CCN(CC)CCN1C(=O)c2ccc3c4c(ccc(c24)C1=O)C(=O)N(CCN(CC)CC)C3=O
inactive: dose: 6.25 mg/kg/injection, schedule: Q01DX001 (ip), vehicle: saline 105 % of control | dose: 12.5 mg/kg/injection, schedule: Q01DX001 (ip), vehicle: saline 98 % of control

CC(C)(C)C(=O)CC(=O)C(C)(C)C.CC(C)(C)C(=O)CC(=O)C(C)(C)C.CC(C)(C)C(=O)CC(=O)C(C)(C)C.[Co]
inactive: dose: 100.0 mg/kg/injection, schedule: Q04DX002 (ip), vehicle: gum acacia 107 % of control | dose: 200.0 mg/kg/injection, schedule: Q04DX002 (ip), vehicle: gum acacia 90 % of control | dose: 400.0 mg/kg/injection, schedule: Q04DX002 (ip), vehicle: gum acacia 93 % of control

CNC(=O)C1C(c2ccc(OC)cc2)C1c1ccc(OC)cc1 (centres undefined)
inactive: dose: 12.5 mg/kg/injection, schedule: Q04DX002 (ip), vehicle: Klucel (hydroxypropylcellulose) (HPC) 92 % of control | dose: 25.0 mg/kg/injection, schedule: Q04DX002 (ip), vehicle: Klucel (hydroxypropylcellulose) (HPC) 92 % of control | [5] 95 % of control

Cc1cc(C)c(C(=O)/C=C/c2ccccc2)c(C)c1
inactive: [6] 91 % of control | dose: 100.0 mg/kg/injection, schedule: Q04DX003 (ip), vehicle: Klucel (hydroxypropylcellulose) (HPC) 104 % of control | dose: 200.0 mg/kg/injection, schedule: Q01DX009 (ip), vehicle: Klucel (hydroxypropylcellulose) (HPC) 94 % of control | dose: 200.0 mg/kg/injection, schedule: Q04DX003 (ip), vehicle: Klucel (hydroxypropylcellulose) (HPC) 101 % of control | [7] 94 % of control | dose: 400.0 mg/kg/injection, schedule: Q04DX003 (ip), vehicle: Klucel (hydroxypropylcellulose) (HPC) 95 % of control

NCCCOc1ccc([N+](=O)[O-])cc1
inactive: [19] 100 % of control | [17] 104 % of control and 109 % of control | [18] 95 % of control | [20] 101 % of control | [8] 102 % of control and 107 % of control | [1] 96 % of control and 89 % of control | [9] 114 % of control | dose: 200.0 mg/kg/injection, schedule: Q01DX001 (ip), vehicle: saline 100 % of control | [10] 100 % of control | [2] 93 % of control and 96 % of control | [11] 106 % of control

Nc1cc(=O)[nH]c(O)c1C(=O)O
inactive: [13] 98 % of control and 90 % of control | [14] 97 % of control | [21] 94 % of control

CCOC(=O)CN(C(=O)OCc1ccccc1)N(C)C(=O)OCc1ccccc1
inactive: dose: 25.0 mg/kg/injection, schedule: Q04DX003 (ip), vehicle: saline with Tween-80 101 % of control | dose: 50.0 mg/kg/injection, schedule: Q04DX003 (ip), vehicle: saline with Tween-80 94 % of control | [13] 101 % of control | [14] 97 % of control | [21] 101 % of control

CCN(CC)C(=S)[S][Sn]([S]C(=S)N(CC)CC)([c]1ccccc1)[c]1ccccc1
inactive: dose: 100.0 mg/kg/injection, schedule: Q01DX001 (ip), vehicle: other 97 % of control | dose: 200.0 mg/kg/injection, schedule: Q01DX001 (ip), vehicle: other 104 % of control | dose: 400.0 mg/kg/injection, schedule: Q01DX001 (ip), vehicle: other 112 % of control

CC(=O)Nc1ncc(/C=C/C=C/c2ccc([N+](=O)[O-])cc2)c(NC(C)=O)n1
inactive: dose: 100.0 mg/kg/injection, schedule: Q01DX001 (ip), vehicle: Klucel (hydroxypropylcellulose) (HPC) 91 % of control | dose: 200.0 mg/kg/injection, schedule: Q01DX001 (ip), vehicle: Klucel (hydroxypropylcellulose) (HPC) 86 % of control | dose: 400.0 mg/kg/injection, schedule: Q01DX001 (ip), vehicle: Klucel (hydroxypropylcellulose) (HPC) 87 % of control

COc1cc(N)c(C(F)(F)F)cc1OC
inactive: dose: 100.0 mg/kg/injection, schedule: Q01DX009 (ip), vehicle: saline with Tween-80 96 % of control | [13] 103 % of control | dose: 200.0 mg/kg/injection, schedule: Q01DX009 (ip), vehicle: saline with Tween-80 94 % of control | [14] 105 % of control | dose: 400.0 mg/kg/injection, schedule: Q01DX009 (ip), vehicle: saline with Tween-80 104 % of control | [21] 104 % of control

O=c1[nH]c(=O)n(Cc2ccccc2)cc1Cc1cccc(OCc2ccccc2)c1
inactive: [13] 97 % of control | [14] 96 % of control | [21] 97 % of control

O=C(NCOC(c1ccccc1)c1ccccc1)c1cccnc1
inactive: [9] 89 % of control | [11] 86 % of control | [12] 92 % of control
